The structures appear in SMILES notation.

Experimental findings from patent EP3722296B1, “DIHYDRONAPHTHYRIDINES AND RELATED COMPOUNDS USEFUL AS KINASE INHIBITORS FOR THE TREATMENT OF PROLIFERATIVE DISEASES” (Deciphera Pharmaceuticals, LLC, priority 2012, dated 2013) are described below.

The subject of one assay is GIST T1 cells. Put plainly: GIST T1 Cell Proliferation Assay. The format is cell-based. Conditions: Homo sapiens, GISTT1, 72 h, 68 hours + 4 hours resazurin. The procedure: GIST48, GIST430, and GIST882 cells were obtained from J. Fletcher (Brigham and Women's Hospital, Boston, MA). GIST T1 cells were obtained from B. Rubin (Cleveland Clinic, Cleveland, OH) and Professor Takahiro Taguchi (Kochi Medical School, Nankoku, Kochi, Japan). Briefly, GIST48 and GIST 882 cells were grown in RPMI 1640 medium supplemented with 15% characterized fetal bovine serum (Invitrogen, Carlsbad, CA), 1 unit/mL penicillin G, 1 µg/ml streptomycin, and 0.29 mg/mL L-glutamine at 37 °C, 5% CO2, and 95% humidity. GIST430 cells were grown in Ham's F10 medium supplemented with 15% characterized fetal bovine serum (Invitrogen, Carlsbad, CA), 30 mg/L bovine pituitary extract (BD Biosciences, San Jose, CA), 0.5% Mito+ serum extender (BD Biosciences, San Jose, CA), 1 unit/mL penicillin G, 1 µg/ml streptomycin, and 0.29 mg/mL L-glutamine at 37 °C, 5%CO2, 95% humidity. GIST T1 cells were grown in DMEM medium supplemented with 10% characterized fetal bovine serum (Invitrogen, Carlsbad, CA), 1 unit/mL penicillin G, 1 µg/ml streptomycin, and 0.29 mg/mL L-glutamine at 37 °C, 5% CO2, and 95% humidity.
A serial dilution of test compound was dispensed into a 384-well black clear bottom plate (Corning, Corning, NY). One thousand two-hundred fifty cells were added per well in 50 µL complete growth medium. Plates were incubated for 68 hours at 37 °C, 5% CO2, 95% humidity. At the end of the incubation period 10 µL of a 440 µM solution of resazurin (Sigma, St. Louis, MO) in PBS was added to each well and incubated for an additional 4 hours at 37 °C, 5% CO2, 95% humidity. Plates were read on a Synergy2 reader (Biotek, Winooski, VT) using an excitation of 540 nm and an emission of 600 nm.

Another assay addresses c-KIT kinase (Homo sapiens, UniProt P10721). Put plainly: c-KIT kinase Assay. The format is biochemical. Details: cKIT residues T544-V976; GST (N); TEV cleavage site (internal); purchased deCODE Biostructures. Particulars: enzymatic assay, ATP 200 µM; read-out: KIT (wt) IC50. As for the experimental part: In this assay, the oxidation of NADH (measured by decrease in absorbance at 340 nm) was continuously monitored spectrophotometrically. […] The absorption at 340 nm was monitored continuously for 2 hours at 30 °C on Synergy 2 (BioTeK). The reaction rate was calculated using the 0 to 1 h time frame. Percent inhibition was obtained by comparison of reaction rate with that of a control (i.e. with no test compound). IC50 values were calculated from a series of percent inhibition values determined at a range of inhibitor concentrations using software routines as implemented in the GraphPad Prism software package. The protein construct was prepared by deCODE Biostructures using procedures known in the art. The construct contains […] of cKit, an N-terminal tag, a GST-fusion sequence and a TEV cleavage site. [formula]

For another assay, the target named is T1, c-KIT D816H kinase (Homo sapiens, UniProt P10721, D816H).
T1 construct: The construct contains residues T544-V976 of cKit; GST (N); TEV cleavage site (internal); purchased deCODE Biostructures
Put plainly: c-KIT D816H Kinase Assay. The assay is classed as biochemical. Conditions: enzymatic assay, ATP 200 µM. The procedure:
(§1) In this assay, the oxidation of NADH (measured by decrease in absorbance at 340 nm) was continuously monitored spectrophotometrically. […] The inhibition reaction was started by mixing serial diluted test compound with the above reaction mixture. The absorption at 340 nm was monitored continuously for 6 hours at 30 °C on Synergy 2 plate reader (BioTech). […] The protein construct was prepared by deCODE Biostructures using procedures known in the art. The construct contains […] of cKit, an N-terminal tag, a GST-fusion sequence and a TEV cleavage site. This construct is identical to Seq ID no.

Another assay has as its target T2, c-KIT T670I kinase (Homo sapiens, UniProt P10721, T670I).
T2 construct: The construct contains residues T544-V976 of cKit; GST (N); TEV cleavage site (internal); purchased deCODE Biostructures
Put plainly: c-KIT T670I kinase assay. The assay is classed as biochemical. Conditions: enzymatic assay. As for the experimental part:
as §1, with “5” for “6”, “no. 1 except for the T670I mutation. [formula] [formula]” for “no.”

The target of the next assay is T3, c-KIT D816V kinase (Homo sapiens, UniProt P10721, D816V).
T3 construct: residues T544-V976 with N-terminal GST fusion; purchased deCODE Biostructures
Put plainly: c-KIT D816V kinase Assay. The format is biochemical. Particulars: enzymatic assay, ATP 200 uM. The procedure: In this assay, the oxidation of NADH (measured by decrease in absorbance at 340 nm) was continuously monitored spectrophotometrically. […] The inhibition reaction was started by mixing serial diluted test compound with the above reaction mixture. The absorption at 340 nm was monitored continuously for 5 hours at 30 °C on Synergy 2 plate reader (BioTech).
(§2) The protein construct was prepared by deCODE Biostructures using procedures known in the art. The construct contains residues T544-V976 of cKit, an N-terminal tag, a GST-fusion sequence and a TEV cleavage site. This construct is identical to Seq ID no.

The target of the next assay is T4, c-KIT V654A kinase (Homo sapiens, UniProt P10721, V654A).
T4 construct: residues T544-V976 with N-terminal GST fusion; purchased deCODE Biostructures
Put plainly: c-KIT V654A Kinase Assay. The assay is classed as biochemical. Conditions: enzymatic assay, ATP 200 µM. As for the experimental part: In this assay, the oxidation of NADH (measured by decrease in absorbance at 340 nm) was continuously monitored spectrophotometrically. […] The inhibition reaction was started by mixing serial diluted test compound with the above reaction mixture. The absorption at 340 nm was monitored continuously for 6 hours at 30 °C on Synergy 2 plate reader (BioTech).
as §2

T4 sequence (P10721 544-976 V654A): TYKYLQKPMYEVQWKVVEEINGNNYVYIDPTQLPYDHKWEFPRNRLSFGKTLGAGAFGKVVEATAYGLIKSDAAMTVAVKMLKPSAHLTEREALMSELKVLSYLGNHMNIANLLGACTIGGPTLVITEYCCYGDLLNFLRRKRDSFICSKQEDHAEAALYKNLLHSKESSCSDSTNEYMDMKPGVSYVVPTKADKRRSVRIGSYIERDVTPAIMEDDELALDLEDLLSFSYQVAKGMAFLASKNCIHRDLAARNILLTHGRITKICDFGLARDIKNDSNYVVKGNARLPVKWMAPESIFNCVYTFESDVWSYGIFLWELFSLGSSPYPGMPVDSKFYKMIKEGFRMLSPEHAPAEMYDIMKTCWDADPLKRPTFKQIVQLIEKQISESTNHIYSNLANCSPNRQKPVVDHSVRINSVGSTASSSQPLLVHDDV
T2 sequence (P10721 544-976 T670I): as the sequence (P10721 544-976 V654A) above, with A111V, T127I counted along it
T3 sequence (P10721 544-976 D816V): as the sequence (P10721 544-976 V654A) above, with A111V, D273V counted along it
Chain of c-KIT kinase (P10721 544-976): as the sequence (P10721 544-976 V654A) above, with A111V counted along it
T1 sequence (P10721 544-976 D816H): as the sequence (P10721 544-976 V654A) above, with A111V, D273H counted along it

In the case of `CCn1c(=O)c(-c2cc(NC(=O)Nc3csc4ccccc34)c(F)cc2C)cc2cnc(NC(=O)N(C)C)cc21` [Example 104, 3-(3-(5-(3-(benzo[b]thiophen-3-yl)ureido)-4-fluoro-2-methylphenyl)-1-ethyl-2-oxo-1,2-dihydro-1,6-naphthyridin-7-yl)-1,1-dimethylurea], the IC50 in the assay on GIST T1 cells fell in the range of 10 to 100 nM; at c-KIT kinase it was 10 to 100 nM; at c-KIT D816H kinase, 10 to 100 nM; on c-KIT T670I kinase it was 10 to 100 nM; on c-KIT D816V kinase it was 10 to 100 nM; on c-KIT V654A kinase, 100 to 1000 nM.
On to `CCn1c(=O)c(-c2cc(NC(=O)Nc3ccccc3)c(F)cc2Br)cc2cnc(NC(=O)N(C)C)cc21` [Example 105, 3-(3-(2-bromo-4-fluoro-5-(3-phenylureido)phenyl)-1-ethyl-2-oxo-1,2-dihydro-1,6-naphthyridin-7-yl)-1,1-dimethylurea], for which the IC50 is < 10 nM in the assay with GIST T1 cells; 10 to 100 nM at c-KIT kinase; 10 to 100 nM on c-KIT D816H kinase; 10 to 100 nM at c-KIT T670I kinase; 10 to 100 nM at c-KIT D816V kinase; 10 to 100 nM at c-KIT V654A kinase.
As to `CCn1c(=O)c(-c2cc(NC(=O)Nc3ccc(F)c(CN4CCOCC4)c3)c(F)cc2Cl)cc2cnc(NC)cc21` [Example 95, 1-(4-chloro-5-(1-ethyl-7-(methylamino)-2-oxo-1,2-dihydro-1,6-naphthyridin-3-yl)-2-fluorophenyl)-3-(4-fluoro-3-(morpholinomethyl)phenyl)urea], the IC50 in the assay with GIST T1 cells is < 10 nM; at c-KIT kinase it was < 10 nM; on c-KIT T670I kinase it was 10 to 100 nM; at c-KIT D816V kinase, 100 to 1000 nM.
Take `CC(=O)Nc1cc2c(cn1)cc(-c1cc(NC(=O)Nc3cccc(F)c3)c(F)cc1Cl)c(=O)n2C(C)C` [Example 99, N-(3-(2-chloro-4-fluoro-5-(3-(3-fluorophenyl)ureido)phenyl)-1-isopropyl-2-oxo-1,2-dihydro-1,6-naphthyridin-7-yl)acetamide]: the IC50 in the assay on GIST T1 cells is < 10 nM.
On the same count and under the same terms, as for `CCn1c(=O)c(-c2cc(NC(=O)Nc3ccc(F)c(CN4CCCC4)c3)c(F)cc2Cl)cc2cnc(NC)cc21` [Example 97, 1-(4-chloro-5-(1-ethyl-7-(methylamino)-2-oxo-1,2-dihydro-1,6-naphthyridin-3-yl)-2-fluorophenyl)-3-(4-fluoro-3-(pyrrolidin-1-ylmethyl)phenyl)urea], the figure is < 10 nM.
For `CCn1c(=O)c(-c2cc(NC(=O)Nc3cccc(F)c3)c(F)cc2C)cc2cnc(NC(=O)N(C)C)cc21` [Example 106, 3-(1-ethyl-3-(4-fluoro-5-(3-(3-fluorophenyl)ureido)-2-methylphenyl)-2-oxo-1,2-dihydro-1,6-naphthyridin-7-yl)-1,1-dimethylurea], the IC50 in the assay with GIST T1 cells was < 10 nM; at c-KIT kinase, 10 to 100 nM; on c-KIT D816H kinase it was < 10 nM; at c-KIT T670I kinase, 10 to 100 nM; on c-KIT D816V kinase it was 10 to 100 nM; at c-KIT V654A kinase, 10 to 100 nM.
As for `CCn1c(=O)c(-c2cc(NC(=O)Nc3ccc(F)c(CN4CCN(C)CC4)c3)c(F)cc2C)cc2cnc(N)cc21` [Example 93, 1-(5-(7-amino-1-ethyl-2-oxo-1,2-dihydro-1,6-naphthyridin-3-yl)-2-fluoro-4-methylphenyl)-3-(4-fluoro-3-((4-methylpiperazin-1-yl)methyl)phenyl)urea], the IC50 with GIST T1 cells lay within 10 to 100 nM; on c-KIT kinase it was 10 to 100 nM; on c-KIT D816H kinase, 10 to 100 nM; on c-KIT T670I kinase it was 10 to 100 nM; at c-KIT D816V kinase, 100 to 1000 nM; on c-KIT V654A kinase it was 100 to 1000 nM.
`CCn1c(=O)c(-c2cc(NC(=O)Nc3ccc(F)c(CN4CCN(C)CC4)c3)c(F)cc2C)cc2cnc(NC=O)cc21` [Example 100, N-(1-ethyl-3-(4-fluoro-5-(3-(4-fluoro-3-((4-methylpiperazin-1-yl)methyl)phenyl)ureido)-2-methylphenyl)-2-oxo-1,2-dihydro-1,6-naphthyridin-7-yl)formamide]: the concentration for half-maximal inhibition (IC50) lay in the range of 10 to 100 nM with GIST T1 cells; 10 to 100 nM on c-KIT kinase; 100 to 1000 nM on c-KIT D816H kinase; 100 to 1000 nM on c-KIT T670I kinase; 100 to 1000 nM at c-KIT D816V kinase; 100 to 1000 nM on c-KIT V654A kinase.
As for `CC(C)n1c(=O)c(-c2cc(NC(=O)Nc3cccc(F)c3)c(F)cc2Cl)cc2cnc(NC(=O)N(C)C)cc21` [Example 98, 3-(3-(2-chloro-4-fluoro-5-(3-(3-fluorophenyl)ureido)phenyl)-1-isopropyl-2-oxo-1,2-dihydro-1,6-naphthyridin-7-yl)-1,1-dimethylurea], the IC50 in the assay with GIST T1 cells is < 10 nM; at c-KIT kinase it was 10 to 100 nM; at c-KIT D816H kinase, 10 to 100 nM; at c-KIT T670I kinase, 10 to 100 nM; at c-KIT D816V kinase, < 10 nM; on c-KIT V654A kinase it was 10 to 100 nM.
`CC(C)n1c(=O)c(-c2cc(NC(=O)Nc3ccccc3)c(F)cc2Cl)cc2cnc(NC(=O)N(C)C)cc21` [Example 103, 3-(3-(2-chloro-4-fluoro-5-(3-phenylureido)phenyl)-1-isopropyl-2-oxo-1,2-dihydro-1,6-naphthyridin-7-yl)-1,1-dimethylurea]: the IC50 in the assay on GIST T1 cells was 10 to 100 nM; on c-KIT kinase, 10 to 100 nM; at c-KIT D816H kinase, 10 to 100 nM; at c-KIT T670I kinase, 10 to 100 nM; on c-KIT D816V kinase, < 10 nM; on c-KIT V654A kinase, 10 to 100 nM.
Consider `CCn1c(=O)c(-c2cc(NC(=O)Nc3ccccc3)c(F)cc2Cl)cc2cnc(NC(=O)N3CC[C@H](N(C)C)C3)cc21` [Example 96, (S)-N-(3-(2-chloro-4-fluoro-5-(3-phenylureido)phenyl)-1-ethyl-2-oxo-1,2-dihydro-1,6-naphthyridin-7-yl)-3-(dimethylamino)pyrrolidine-1-carboxamide], for which the concentration for half-maximal inhibition (IC50) is < 10 nM with GIST T1 cells; < 10 nM on c-KIT kinase; 10 to 100 nM at c-KIT D816H kinase; 10 to 100 nM at c-KIT T670I kinase; 10 to 100 nM on c-KIT D816V kinase; 10 to 100 nM at c-KIT V654A kinase.
